Article PMC6886798, “Expression of myeloid Src-family kinases is associated with poor prognosis in AML and influences Flt3-ITD kinase inhibitor acquired resistance” (PLoS ONE, 2019)

Columns and labels:
[1] = system: Flt3-ITD N676S in TF-1 cells; assay: Flt3 immunoprecipitation, anti-phosphotyrosine immunoblot; type: cell-based, human; conditions: vs Flt3-ITD; overnight
Protocol: Immunoprecipitation reactions were incubated overnight at 4 °C.

[2] = target: T1, ABL1(M351T)-phosphorylated (Homo sapiens, UniProt P00519, M351T); assay: KINOMEscan; type: binding; conditions: 1.0 µM
T1 construct: purchased Eurofins/DiscoverX KINOMEscan scanMAX
Protocol: (§1) Kinase retention to the immobilized ligand is then measured using quantitative real-time PCR for each kinase-specific DNA barcode.

[3] = target: T2, ABL1(T315I)-nonphosphorylated (Homo sapiens, UniProt P00519, T315I); assay: KINOMEscan; type: binding; conditions: 1.0 µM
T2 construct: purchased Eurofins/DiscoverX KINOMEscan scanMAX
Protocol: as §1

ADCK4 = target: T3, ADCK4 (Homo sapiens, UniProt Q96D53); assay: KINOMEscan; type: binding; conditions: 1.0 µM
T3 construct: purchased Eurofins/DiscoverX KINOMEscan scanMAX
T3 sequence (Q96D53 whole entry): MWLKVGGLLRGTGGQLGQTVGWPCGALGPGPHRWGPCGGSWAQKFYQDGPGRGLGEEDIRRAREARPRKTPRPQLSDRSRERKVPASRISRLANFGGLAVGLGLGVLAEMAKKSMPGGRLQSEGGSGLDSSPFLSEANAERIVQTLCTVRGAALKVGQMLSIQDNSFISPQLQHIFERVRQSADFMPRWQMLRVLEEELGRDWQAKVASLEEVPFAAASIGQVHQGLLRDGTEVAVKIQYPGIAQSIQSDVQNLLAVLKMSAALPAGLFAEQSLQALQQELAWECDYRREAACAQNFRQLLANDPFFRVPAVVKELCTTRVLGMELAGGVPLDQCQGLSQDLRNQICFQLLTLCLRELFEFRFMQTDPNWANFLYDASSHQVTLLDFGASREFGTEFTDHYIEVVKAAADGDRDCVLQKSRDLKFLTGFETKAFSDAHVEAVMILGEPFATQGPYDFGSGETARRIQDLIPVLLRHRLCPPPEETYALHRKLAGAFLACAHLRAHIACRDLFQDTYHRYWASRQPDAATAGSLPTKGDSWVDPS
Protocol: as §1

AURKC = target: T4, AURKC (Homo sapiens, UniProt Q9UQB9); assay: KINOMEscan; type: binding; conditions: 1.0 µM
T4 construct: purchased Eurofins/DiscoverX KINOMEscan scanMAX
Protocol: as §1

CASK = target: T5, CASK (Homo sapiens, UniProt O14936); assay: KINOMEscan; type: binding; conditions: 1.0 µM
T5 construct: purchased Eurofins/DiscoverX KINOMEscan scanMAX
Protocol: as §1

CDK11 = target: T6, CDK11 (Homo sapiens, UniProt Q9BWU1); assay: KINOMEscan; type: binding; conditions: 1.0 µM
T6 construct: purchased Eurofins/DiscoverX KINOMEscan scanMAX
Protocol: as §1

CDK3 = target: T7, CDK3 (Homo sapiens, UniProt Q00526); assay: KINOMEscan; type: binding; conditions: 1.0 µM
T7 construct: purchased Eurofins/DiscoverX KINOMEscan scanMAX
Protocol: as §1

CIT = target: T8, CIT (Homo sapiens, UniProt O14578); assay: KINOMEscan; type: binding; conditions: 1.0 µM
T8 construct: purchased Eurofins/DiscoverX KINOMEscan scanMAX
Protocol: as §1

CLK4 = target: T9, CLK4 (Homo sapiens, UniProt Q9HAZ1); assay: KINOMEscan; type: binding; conditions: 1.0 µM
T9 construct: purchased Eurofins/DiscoverX KINOMEscan scanMAX
Protocol: as §1

CSNK1D = target: T10, CSNK1D (Homo sapiens, UniProt P48730); assay: KINOMEscan; type: binding; conditions: 1.0 µM
T10 construct: purchased Eurofins/DiscoverX KINOMEscan scanMAX
Protocol: as §1

CSNK2A2 = target: T11, CSNK2A2 (Homo sapiens, UniProt P19784); assay: KINOMEscan; type: binding; conditions: 1.0 µM
T11 construct: purchased Eurofins/DiscoverX KINOMEscan scanMAX
T11 sequence (P19784 whole entry): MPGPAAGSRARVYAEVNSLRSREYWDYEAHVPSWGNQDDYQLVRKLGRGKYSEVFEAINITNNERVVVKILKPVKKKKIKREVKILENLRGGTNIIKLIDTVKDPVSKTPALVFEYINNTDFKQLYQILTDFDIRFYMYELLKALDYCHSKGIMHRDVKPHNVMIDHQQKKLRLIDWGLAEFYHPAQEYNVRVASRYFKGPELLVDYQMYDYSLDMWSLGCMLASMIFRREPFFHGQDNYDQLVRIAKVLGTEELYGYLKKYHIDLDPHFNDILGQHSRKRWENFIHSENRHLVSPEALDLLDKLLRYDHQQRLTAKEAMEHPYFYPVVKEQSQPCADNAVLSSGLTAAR
Protocol: as §1

FER = target: T12, FER (Homo sapiens, UniProt P16591); assay: KINOMEscan; type: binding; conditions: 1.0 µM
T12 construct: purchased Eurofins/DiscoverX KINOMEscan scanMAX
T12 sequence (P16591 whole entry): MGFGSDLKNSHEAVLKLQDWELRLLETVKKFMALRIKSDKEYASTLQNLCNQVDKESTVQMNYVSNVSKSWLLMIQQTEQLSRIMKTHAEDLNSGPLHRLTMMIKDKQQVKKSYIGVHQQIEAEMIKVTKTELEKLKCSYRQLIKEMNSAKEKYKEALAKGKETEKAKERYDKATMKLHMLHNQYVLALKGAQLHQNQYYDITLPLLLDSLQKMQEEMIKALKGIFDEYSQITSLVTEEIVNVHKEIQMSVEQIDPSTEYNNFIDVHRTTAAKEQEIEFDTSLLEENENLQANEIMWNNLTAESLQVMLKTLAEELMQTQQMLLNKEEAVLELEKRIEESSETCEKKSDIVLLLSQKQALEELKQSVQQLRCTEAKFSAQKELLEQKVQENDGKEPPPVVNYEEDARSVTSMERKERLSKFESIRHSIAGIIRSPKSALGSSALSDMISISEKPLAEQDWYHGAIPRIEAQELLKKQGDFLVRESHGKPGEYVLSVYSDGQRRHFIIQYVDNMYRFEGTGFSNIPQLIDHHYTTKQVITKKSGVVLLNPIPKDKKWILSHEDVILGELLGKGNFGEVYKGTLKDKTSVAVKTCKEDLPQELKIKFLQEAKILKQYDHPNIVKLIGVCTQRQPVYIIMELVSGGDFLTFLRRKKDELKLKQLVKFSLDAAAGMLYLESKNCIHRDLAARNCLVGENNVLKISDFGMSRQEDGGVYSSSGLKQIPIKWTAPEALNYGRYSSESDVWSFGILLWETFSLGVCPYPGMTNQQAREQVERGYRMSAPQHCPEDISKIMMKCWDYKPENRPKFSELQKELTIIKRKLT
Protocol: as §1

JNK3 = target: T13, JNK3 (Homo sapiens, UniProt P53779); assay: KINOMEscan; type: binding; conditions: 1.0 µM
T13 construct: purchased Eurofins/DiscoverX KINOMEscan scanMAX
T13 sequence (P53779 whole entry): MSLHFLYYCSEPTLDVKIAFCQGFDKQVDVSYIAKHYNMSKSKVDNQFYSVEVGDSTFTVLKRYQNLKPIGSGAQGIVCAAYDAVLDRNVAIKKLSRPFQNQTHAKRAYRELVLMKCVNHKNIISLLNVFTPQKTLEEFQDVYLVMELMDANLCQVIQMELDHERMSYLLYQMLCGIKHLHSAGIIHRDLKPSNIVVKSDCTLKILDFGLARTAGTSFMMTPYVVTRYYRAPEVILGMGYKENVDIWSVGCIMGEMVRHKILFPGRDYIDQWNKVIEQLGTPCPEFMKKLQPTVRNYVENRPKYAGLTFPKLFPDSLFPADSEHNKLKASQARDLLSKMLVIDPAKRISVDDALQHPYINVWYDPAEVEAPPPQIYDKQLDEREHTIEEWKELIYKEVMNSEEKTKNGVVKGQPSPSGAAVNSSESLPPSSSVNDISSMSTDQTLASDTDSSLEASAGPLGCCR
Protocol: as §1

KIT(V559D,V654A) = target: T14, KIT(V559D,V654A) (Homo sapiens, UniProt P10721, V559D/V654A); assay: KINOMEscan; type: binding; conditions: 1.0 µM
T14 construct: purchased Eurofins/DiscoverX KINOMEscan scanMAX
Protocol: as §1

MLK1 = target: T15, MLK1 (Homo sapiens, UniProt P80192); assay: KINOMEscan; type: binding; conditions: 1.0 µM
T15 construct: purchased Eurofins/DiscoverX KINOMEscan scanMAX
Protocol: as §1

PFPK5(P.falciparum) = target: T16, PFPK5(P.falciparum) (Plasmodium falciparum, UniProt P61075); assay: KINOMEscan; type: binding; conditions: 1.0 µM
T16 construct: purchased Eurofins/DiscoverX KINOMEscan scanMAX
T16 sequence (P61075 whole entry): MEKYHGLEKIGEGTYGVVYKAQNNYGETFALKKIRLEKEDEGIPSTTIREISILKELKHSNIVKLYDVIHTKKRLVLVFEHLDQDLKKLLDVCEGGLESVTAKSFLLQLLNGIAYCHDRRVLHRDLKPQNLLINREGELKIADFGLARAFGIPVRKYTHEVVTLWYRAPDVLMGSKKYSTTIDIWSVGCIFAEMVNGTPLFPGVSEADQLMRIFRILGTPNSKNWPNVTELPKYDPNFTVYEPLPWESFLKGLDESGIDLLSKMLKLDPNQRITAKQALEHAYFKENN
Protocol: as §1

PIK3CA(H1047Y) = target: T17, PIK3CA(H1047Y) (Homo sapiens, UniProt P42336, H1047Y); assay: KINOMEscan; type: binding; conditions: 1.0 µM
T17 construct: purchased Eurofins/DiscoverX KINOMEscan scanMAX
T17 sequence (P42336 whole entry H1047Y): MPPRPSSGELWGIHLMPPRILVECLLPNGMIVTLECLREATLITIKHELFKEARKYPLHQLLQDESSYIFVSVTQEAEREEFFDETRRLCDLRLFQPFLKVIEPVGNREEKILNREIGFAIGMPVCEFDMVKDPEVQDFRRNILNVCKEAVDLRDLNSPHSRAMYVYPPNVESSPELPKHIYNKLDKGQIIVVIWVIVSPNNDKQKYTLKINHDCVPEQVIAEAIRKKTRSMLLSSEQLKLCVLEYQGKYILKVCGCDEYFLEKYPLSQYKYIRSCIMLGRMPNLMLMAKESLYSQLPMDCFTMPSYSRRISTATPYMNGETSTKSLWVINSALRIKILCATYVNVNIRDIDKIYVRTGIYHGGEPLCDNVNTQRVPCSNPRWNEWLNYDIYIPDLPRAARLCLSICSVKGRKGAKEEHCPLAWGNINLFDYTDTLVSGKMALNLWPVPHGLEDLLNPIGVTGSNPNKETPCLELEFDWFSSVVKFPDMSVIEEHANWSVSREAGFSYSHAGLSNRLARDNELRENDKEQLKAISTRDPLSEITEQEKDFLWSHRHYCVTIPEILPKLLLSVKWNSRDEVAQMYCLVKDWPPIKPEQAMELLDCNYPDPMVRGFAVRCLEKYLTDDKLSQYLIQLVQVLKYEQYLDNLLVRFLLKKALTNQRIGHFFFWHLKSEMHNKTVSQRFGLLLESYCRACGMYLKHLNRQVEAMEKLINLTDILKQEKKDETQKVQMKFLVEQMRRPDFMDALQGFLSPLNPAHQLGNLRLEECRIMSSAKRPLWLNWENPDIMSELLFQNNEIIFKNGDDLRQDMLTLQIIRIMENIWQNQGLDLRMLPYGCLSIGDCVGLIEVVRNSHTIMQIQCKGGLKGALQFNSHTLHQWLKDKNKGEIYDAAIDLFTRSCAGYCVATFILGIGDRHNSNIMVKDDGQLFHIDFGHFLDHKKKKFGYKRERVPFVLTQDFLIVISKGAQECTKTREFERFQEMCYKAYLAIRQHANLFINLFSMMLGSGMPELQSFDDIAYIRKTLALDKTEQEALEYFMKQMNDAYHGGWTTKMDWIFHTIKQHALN
Protocol: as §1

PIK4CB = target: T18, PIK4CB (Homo sapiens, UniProt Q9UBF8); assay: KINOMEscan; type: binding; conditions: 1.0 µM
T18 construct: purchased Eurofins/DiscoverX KINOMEscan scanMAX
T18 sequence (Q9UBF8 whole entry): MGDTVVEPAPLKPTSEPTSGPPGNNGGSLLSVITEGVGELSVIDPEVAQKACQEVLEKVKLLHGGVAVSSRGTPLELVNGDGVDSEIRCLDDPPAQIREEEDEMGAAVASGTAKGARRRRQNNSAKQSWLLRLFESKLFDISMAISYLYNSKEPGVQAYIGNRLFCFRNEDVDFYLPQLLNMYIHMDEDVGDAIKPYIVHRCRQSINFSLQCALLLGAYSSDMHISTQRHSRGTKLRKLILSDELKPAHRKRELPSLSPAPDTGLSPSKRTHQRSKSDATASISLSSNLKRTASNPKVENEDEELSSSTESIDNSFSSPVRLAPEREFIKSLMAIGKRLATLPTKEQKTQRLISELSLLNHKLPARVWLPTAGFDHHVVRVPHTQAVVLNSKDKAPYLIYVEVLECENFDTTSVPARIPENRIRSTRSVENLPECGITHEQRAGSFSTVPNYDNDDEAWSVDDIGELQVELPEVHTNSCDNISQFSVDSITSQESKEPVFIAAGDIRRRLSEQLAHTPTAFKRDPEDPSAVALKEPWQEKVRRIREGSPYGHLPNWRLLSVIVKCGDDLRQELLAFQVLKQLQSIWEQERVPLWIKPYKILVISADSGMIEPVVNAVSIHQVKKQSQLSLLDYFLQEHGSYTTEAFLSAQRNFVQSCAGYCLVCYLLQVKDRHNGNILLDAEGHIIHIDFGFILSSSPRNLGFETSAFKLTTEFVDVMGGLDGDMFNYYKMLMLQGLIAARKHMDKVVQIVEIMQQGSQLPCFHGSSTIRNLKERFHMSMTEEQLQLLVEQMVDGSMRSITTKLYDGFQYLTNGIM
Protocol: as §1

PRKG2 = target: T19, PRKG2 (Homo sapiens, UniProt Q13237); assay: KINOMEscan; type: binding; conditions: 1.0 µM
T19 construct: purchased Eurofins/DiscoverX KINOMEscan scanMAX
Protocol: as §1

RIOK2 = target: T20, RIOK2 (Homo sapiens, UniProt Q9BVS4); assay: KINOMEscan; type: binding; conditions: 1.0 µM
T20 construct: purchased Eurofins/DiscoverX KINOMEscan scanMAX
Protocol: as §1

TAOK1 = target: T21, TAOK1 (Homo sapiens, UniProt Q7L7X3); assay: KINOMEscan; type: binding; conditions: 1.0 µM
T21 construct: purchased Eurofins/DiscoverX KINOMEscan scanMAX
Protocol: as §1

TESK1 = target: T22, TESK1 (Homo sapiens, UniProt Q15569); assay: KINOMEscan; type: binding; conditions: 1.0 µM
T22 construct: purchased Eurofins/DiscoverX KINOMEscan scanMAX
T22 sequence (Q15569 whole entry): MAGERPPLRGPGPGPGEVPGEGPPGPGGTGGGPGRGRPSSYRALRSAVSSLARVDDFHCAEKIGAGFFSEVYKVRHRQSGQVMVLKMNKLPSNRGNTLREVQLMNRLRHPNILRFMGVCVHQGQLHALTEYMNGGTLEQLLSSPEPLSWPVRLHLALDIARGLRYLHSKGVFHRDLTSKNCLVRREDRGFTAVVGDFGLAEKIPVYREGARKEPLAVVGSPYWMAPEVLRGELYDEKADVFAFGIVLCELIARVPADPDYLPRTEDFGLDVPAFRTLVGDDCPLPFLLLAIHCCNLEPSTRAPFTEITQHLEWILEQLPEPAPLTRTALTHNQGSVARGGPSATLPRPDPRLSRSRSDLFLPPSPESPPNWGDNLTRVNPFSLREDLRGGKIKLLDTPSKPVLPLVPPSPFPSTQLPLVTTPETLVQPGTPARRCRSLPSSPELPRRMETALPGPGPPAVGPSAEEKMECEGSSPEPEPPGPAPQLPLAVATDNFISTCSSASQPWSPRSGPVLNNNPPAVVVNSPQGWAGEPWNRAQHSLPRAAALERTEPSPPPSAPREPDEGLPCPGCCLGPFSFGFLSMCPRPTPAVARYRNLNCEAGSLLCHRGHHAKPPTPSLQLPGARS
Protocol: as §1

TYRO3 = target: T23, TYRO3 (Homo sapiens, UniProt Q06418); assay: KINOMEscan; type: binding; conditions: 1.0 µM
T23 construct: DNA tag (qPCR barcode); purchased Eurofins/DiscoverX KINOMEscan scanMAX
Protocol: as §1

Structure (SMILES): CN1CCN(C2CCC(n3cc(-c4ccc(Oc5ccccc5)cc4)c4c(N)ncnc43)CC2)CC1 (stereo not drawn) [A-419259]
- sensitivity of phosphotyrosine content to A-419259 [1]: significantly reduced sensitivity
- % Control [2]: 1.6%
- % Control [3]: 41%
- % Control (ADCK4): 100%
- % Control (AURKC): 79%
- % Control (CASK): 67%
- % Control (CDK11): 3.9%
- % Control (CDK3): 99%
- % Control (CIT): 79%
- % Control (CLK4): 100%
- % Control (CSNK1D): 8.3%
- % Control (CSNK2A2): 66%
- % Control (FER): 100%
- % Control (JNK3): 99%
- % Control (KIT(V559D,V654A)): 18%
- % Control (MLK1): 88%
- % Control (PFPK5(P.falciparum)): 78%
- % Control (PIK3CA(H1047Y)): 99%
- % Control (PIK4CB): 83%
- % Control (PRKG2): 100%
- % Control (RIOK2): 100%
- % Control (TAOK1): 100%
- % Control (TESK1): 95%
- % Control (TYRO3): 66%
